# Legend:
# DmGluClα = test system: DmGluClα; parameters: method as in PMID 7935817, PMID 8702744, PMID 25994631; settings: read-out: EC50 glutamate; cited from earlier work
# HcGluClα = test system: HcGluClα; parameters: method as in PMID 7935817, PMID 8702744, PMID 25994631; settings: read-out: EC50 glutamate; cited from earlier work
# AgGluCl = test system: AgGluCl; parameters: method as in PMID 7935817, PMID 8702744, PMID 25994631; settings: read-out: EC50 glutamate; cited from earlier work
# [1] = test system: coexpressed CrGluCl-D:CrGluCl-C; test: Voltage-clamp of oocytes coinjected with CrGluCl-D and CrGluCl-C; type: cell-based, Caligus rogercresseyi; settings: D:C ratio 1:1
# Method: Adult female Xenopus laevis frogs were anaesthetized by immersion in a1g/L solution tricaine (Ethyl 3-aminobenzoate methanesulfonate, Sigma) buffered to pH 7 with NaHCO3. Surgery was performed 30–40 min later, once the frog was completely anaesthetized judging by loss of reflexes. Ovarian lobes were removed through 1 cm abdominal incision and then kept at 16°C in Barth’s modified solution containing (in mM): 88 NaCl, 1 KCl, 0.4 CaCl2, 0.3 Ca (NO3)2, 0.8 MgSO4, 2.4 NaHCO3, 5 Hepes, 2.5 sodium pyruvate, 100 μg/ml gentamicin sulfate, 100 U/ml penicillin, 100 μg/ml streptomycin, 250 μg/ml amphotericin B, 0.22μm filtered and adjusted to pH 7.5 with Tris-Base. Osmolarity was brought to 220 mOsm with saccharose. […]
# Current measurements at controlled membrane potentials (voltage-clamp experiments) were performed using two intracellular microelectrodes in defolliculated Xenopus oocytes previously microinjected with 20 ng of cRNA. […] The oocytes were recorded in a chamber (Model RC-1Z, Warner Instrumenst, USA) under continuous superfusion. […] Currents were recorded continuously during the experiments without interruptions for solution changes. […] The signal filtered at 1 kHz was acquired with a Digidata 1440A Analog-to-Digital Converter and analyzed with Axon pClamp 10.6 software. […]
Molecule,EC50 (DmGluClα),EC50 (HcGluClα),EC50 (AgGluCl),Iver response to activation [1]
"N[C@@H](CCC(=O)O)C(=O)O [glutamate, L-glutamate]",23 µM,28 µM,30 µM,–
ivermectin,–,–,–,Sensitive

# From paper PMC10038264, “A new family of glutamate-gated chloride channels in parasitic sea louse Caligus rogercresseyi: A subunit refractory to activation by ivermectin is dominant in heteromeric assemblies” (PLOS Pathogens, 2023)
